According to patent US8231888B2, “Isoxazolines for controlling invertebrate pests” (priority 2005, dated 2012):

Columns and labels:
Assay type in all cases: in vivo
[1] = system: diamondback moth (Plutella xylostella); experiment: Test A: control of diamondback moth on radish plant, foliar spray; settings: sprayed at 250 and/or 50 ppm, 6 days, 25° C.; no asterisk (not limited to 250 ppm)
Text: For evaluating control of diamondback moth (Plutella xylostella) the test unit consisted of a small open container with a 12-14-day-old radish plant inside. This was pre-infested with about 50 neonate larvae that were dispensed into the test unit via corn cob grits using a bazooka inoculator. The larvae moved onto the test plant after being dispensed into the test unit.
(§1) Test compounds were formulated using a solution containing 10% acetone, 90% water and 300 ppm X-77™ Spreader Lo-Foam Formula non-ionic surfactant containing alkylarylpolyoxyethylene, free fatty acids, glycols and isopropanol (Loveland Industries, Inc. Greeley, Colo., USA). The formulated compounds were applied in 1 mL of liquid through a SUJ2 atomizer nozzle with 1/8 JJ custom body (Spraying Systems Co. Wheaton, Ill., USA) positioned 1.27 cm (0.5 inches) above the top of each test unit. All experimental compounds in these tests were sprayed at 250 and/or 50 ppm, and the test was replicated three times. After spraying of the formulated test compound, each test unit was allowed to dry for 1 h and then a black, screened cap was placed on top. The test units were held for 6 days in a growth chamber at 25° C. and 70% relative humidity. Plant feeding damage was then visually assessed based on foliage consumed and a pest mortality rating was also counted and calculated for each test unit.

[2] = system: fall armyworm (Spodoptera frugiperda); experiment: Test B: control of fall armyworm on corn (maize) plant, foliar spray; settings: sprayed at 250 and/or 50 ppm; no asterisk (not limited to 250 ppm)
Method: as §1
For evaluating control of fall armyworm (Spodoptera frugiperda) the test unit consisted of a small open container with a 4-5-day-old corn (maize) plant inside. This was pre-infested (using a core sampler) with 10-15 1-day-old larvae on a piece of insect diet. Test compounds were formulated and sprayed at 250 and/or 50 ppm as described for Test A and replicated three times. After spraying, the test units were maintained in a growth chamber and then the control efficacy was rated for each test unit as described for Test A.

[3] = system: western flower thrips (Frankliniella occidentalis); experiment: Test D: control of western flower thrips on Soleil bean plant, contact and/or systemic; settings: 6 days, 25° C.
Method: as §1
For evaluating control of the western flower thrips (Frankliniella occidentalis) through contact and/or systemic means, the test unit consisted of a small open container with a 5-7 day old Soleil Bean plant inside. Test compounds were formulated and sprayed at 250 and/or 50 ppm, and the test was replicated three times as described for Test A. After spraying, the test units were allowed to dry for 1 hour and then 22-27 adult thrips were added to each unit and then a black, screened cap was placed on top. The test units were held for 6 days at 25° C. and 45-55% relative humidity. A mortality rating was assessed along with a plant damage rating for each test unit.

[4] = system: cat flea (Ctenocephalides felis Bouche); experiment: Test E: control of cat flea on orally dosed CD-1 mouse; settings: 10 mg/kg oral, fleas applied 2 h after dosing, mortality 48 hours after flea application
Method: For evaluating control of the cat flea (Ctenocephalides felis Bouche), a CD-1® mouse (about 30 g, male, obtained from Charles River Laboratories, Wilmington, Mass.) was orally dosed with a test compound in an amount of 10 mg/kg solubilized in propylene glycol/glycerol formal (60:40). Two hours after oral administration of the test compound, approximately 8 to 16 adult fleas were applied to each mouse. The fleas were then evaluated for mortality 48 hours after flea application to the mouse.

[5] = sprayed at 250 and/or 50 ppm, no asterisk (not limited to 250 ppm)

Compound	control efficacy (20% or less feeding damage or 80% or more mortality) [1]	control efficacy (20% or less feeding damage or 80% or more mortality) [2]	control efficacy (20% or less feeding damage or 80% or more mortality) [3, 5]	flea mortality [4] [%]	control efficacy (20% or less feeding damage or 80% or more mortality) ([3]; asterisk: observed only at 250 ppm)
O=C(NCc1ccccn1)c1ccc(C2=NOC(c3cc(Cl)cc(Cl)c3)(C(F)(F)F)C2)c2ccccc12 (stereo not shown) [Compound 2]	very good to excellent levels of control efficacy	very good to excellent levels of control efficacy	very good to excellent levels of control efficacy	≥ 30	–
CN(C)CCNC(=O)c1ccc(C2=NOC(c3cc(Cl)cc(Cl)c3)(C(F)(F)F)C2)c2ccccc12.Cl (stereo not shown) [Compound 14]	very good to excellent levels of control efficacy	very good to excellent levels of control efficacy	–	–	very good to excellent levels of control efficacy
O=C(NCCO)c1ccc(C2=NOC(c3cc(Cl)cc(Cl)c3)(C(F)(F)F)C2)c2ccccc12 (stereo not shown) [Compound 35]	very good to excellent levels of control efficacy	very good to excellent levels of control efficacy	very good to excellent levels of control efficacy	–	–
